This test concerns the target OXA-58 (Acinetobacter baumannii, UniProt Q2TR58). Kind of test: time-resolved X-ray crystallography of the acyl-enzyme complex. The conditions noted are these: read-out: Ki. It is filed as biochemical.

Chain of OXA-58 (Q2TR58 19-280): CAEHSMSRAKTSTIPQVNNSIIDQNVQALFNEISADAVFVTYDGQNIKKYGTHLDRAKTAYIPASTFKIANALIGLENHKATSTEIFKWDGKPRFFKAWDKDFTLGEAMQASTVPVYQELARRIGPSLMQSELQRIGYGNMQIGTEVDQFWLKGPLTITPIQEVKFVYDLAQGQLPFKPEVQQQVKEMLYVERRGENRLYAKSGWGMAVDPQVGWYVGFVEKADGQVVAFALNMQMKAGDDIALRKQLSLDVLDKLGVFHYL

`CC(O)[C@H]1C(=O)N2C(C(=O)O)=C(S[C@H]3CNC(C(=O)N(C)C)C3)C[C@]12C` (stereo partly shown) [NA-1-157, NA-1–157]: the KI (inactivation) came out at 1.9 ± 0.3 µM.

Source of the values: publication PMC11972452 (ACS infectious diseases, 2024).
